Reference: patent US20260232767A1, “INTERLEUKIN-23 RECEPTOR ANTAGONIST PEPTIDES FOR USE IN THE TREATMENT OF PSORIASIS” (Janssen Pharmaceutica NV, priority 2023, published 2026)

Test system: subjects with moderate-to-severe plaque psoriasis
Experiment: Hematology and chemistry laboratory values by CTCAE grade
Type: in vivo, human
Conditions: through Week 56
Description: The proportion of participants who discontinued study intervention due to one or more AEs was low (n=4). All events were singular in nature with no apparent dose-dependent increase (Table 48 and Table 52). The number of participants with abnormal hematology and chemistry laboratory values with CTCAE toxicity grade≥3 were low through the end of the study (Table 43 through Table 46). There was no apparent dose-dependent increase in laboratory abnormality occurrences.

CC(=O)NCCCC[C@@H]1NC(=O)[C@H](Cc2c[nH]c3c(C)cccc23)NC(=O)[C@H]([C@@H](C)O)NC(=O)[C@H](CC(N)=O)NC(=O)[C@@H](NC(C)=O)C(C)(C)SSC(C)(C)[C@@H](C(=O)N[C@@H](Cc2ccc(OCCN)cc2)C(=O)N[C@@H](Cc2ccc3ccccc3c2)C(=O)NC2(C(=O)N[C@@H](CCC(=O)O)C(=O)N[C@@H](CC(N)=O)C(=O)N[C@@H](Cc3cccnc3)C(=O)N(C)CC(N)=O)CCOCC2)NC1=O [IL-23 receptor antagonist peptide, Ac-[Pen]*-N-T-[W(7-Me)]-[Lys(Ac)]-[Pen]*-Phe[4-(2-aminoethoxy)]-[2-Nal]-[THP]-E-N-[3-Pal]-Sarc-NH2 (*[Pen]-[Pen]* formdisulfidebond)]
12: Alanine Aminotransferase (increased): Subjects with Grade 1 (100 mg QD)
0: Creatinine (increased): Subjects with Grade 3 (100 mg BID) | Creatinine (increased): Subjects with Grade 4 (100 mg BID) | Gamma Glutamyl Transferase (increased): Subjects with Grade 2 (100 mg BID) | Gamma Glutamyl Transferase (increased): Subjects with Grade 3 (100 mg BID) | Gamma Glutamyl Transferase (increased): Subjects with Grade 4 (100 mg BID) | Glucose (decreased): Subjects with Grade 2 (100 mg BID) | Glucose (decreased): Subjects with Grade 3 (100 mg BID) | Glucose (decreased): Subjects with Grade 4 (100 mg BID) | Hemoglobin (g/L) (decreased): subjects with Grade 2 (100 mg BID) | Hemoglobin (g/L) (decreased): subjects with Grade 3 (100 mg BID) | Hemoglobin (g/L) (decreased): subjects with Grade 4 (100 mg BID) | Hemoglobin (g/L) (increased): subjects with Grade 2 (100 mg BID) | Hemoglobin (g/L) (increased): subjects with Grade 3 (100 mg BID) | Hemoglobin (g/L) (increased): subjects with Grade 4 (100 mg BID) | Lymphocytes (×10^9/L) (decreased): subjects with Grade 2 (100 mg BID) | Lymphocytes (×10^9/L) (decreased): subjects with Grade 3 (100 mg BID) | Lymphocytes (×10^9/L) (decreased): subjects with Grade 4 (100 mg BID) | Lymphocytes (×10^9/L) (increased): subjects with Grade 1 (100 mg BID) | Lymphocytes (×10^9/L) (increased): subjects with Grade 2 (100 mg BID) | Lymphocytes (×10^9/L) (increased): subjects with Grade 3 (100 mg BID) | Lymphocytes (×10^9/L) (increased): subjects with Grade 4 (100 mg BID) | Lymphocytes (×10^9/L) (increased): subjects with postbaseline maximum toxicity grade >0 (100 mg BID) | Magnesium (decreased): Subjects with Grade 1 (100 mg BID) | Magnesium (decreased): Subjects with Grade 2 (100 mg BID) | Magnesium (decreased): Subjects with Grade 3 (100 mg BID) | Magnesium (decreased): Subjects with Grade 4 (100 mg BID) | Magnesium (decreased): Subjects with postbaseline maximum toxicity grade >0 (100 mg BID) | Magnesium (increased): Subjects with Grade 2 (100 mg BID) | Magnesium (increased): Subjects with Grade 3 (100 mg BID) | Magnesium (increased): Subjects with Grade 4 (100 mg BID) | Neutrophils (×10^9/L) (decreased): subjects with Grade 3 (100 mg BID) | Neutrophils (×10^9/L) (decreased): subjects with Grade 4 (100 mg BID) | Platelets (×10^9/L) (decreased): subjects with Grade 2 (100 mg BID) | Platelets (×10^9/L) (decreased): subjects with Grade 3 (100 mg BID) | Platelets (×10^9/L) (decreased): subjects with Grade 4 (100 mg BID) | Potassium (decreased): Subjects with Grade 1 (100 mg BID) | Potassium (decreased): Subjects with Grade 2 (100 mg BID) | Potassium (decreased): Subjects with Grade 3 (100 mg BID) | Potassium (decreased): Subjects with Grade 4 (100 mg BID) | Potassium (decreased): Subjects with postbaseline maximum toxicity grade >0 (100 mg BID) | Potassium (increased): Subjects with Grade 2 (100 mg BID) | Potassium (increased): Subjects with Grade 3 (100 mg BID) | Potassium (increased): Subjects with Grade 4 (100 mg BID) | Sodium (decreased): Subjects with Grade 1 (100 mg BID) | Sodium (decreased): Subjects with Grade 2 (100 mg BID) | Sodium (decreased): Subjects with Grade 3 (100 mg BID) | Sodium (decreased): Subjects with Grade 4 (100 mg BID) | Sodium (decreased): Subjects with postbaseline maximum toxicity grade >0 (100 mg BID) | Sodium (increased): Subjects with Grade 2 (100 mg BID) | Sodium (increased): Subjects with Grade 3 (100 mg BID) | Sodium (increased): Subjects with Grade 4 (100 mg BID) | Total Bilirubin (increased): Subjects with Grade 2 (100 mg BID) | Total Bilirubin (increased): Subjects with Grade 3 (100 mg BID) | Total Bilirubin (increased): Subjects with Grade 4 (100 mg BID) | Triglycerides (increased): Subjects with Grade 4 (100 mg BID) | WBC (×10^9/L) (decreased): subjects with Grade 2 (100 mg BID) | WBC (×10^9/L) (decreased): subjects with Grade 3 (100 mg BID) | WBC (×10^9/L) (decreased): subjects with Grade 4 (100 mg BID) | WBC (×10^9/L) (increased): subjects with Grade 1 (100 mg BID) | WBC (×10^9/L) (increased): subjects with Grade 2 (100 mg BID) | WBC (×10^9/L) (increased): subjects with Grade 3 (100 mg BID) | WBC (×10^9/L) (increased): subjects with Grade 4 (100 mg BID) | WBC (×10^9/L) (increased): subjects with postbaseline maximum toxicity grade >0 (100 mg BID) | Alanine Aminotransferase (increased): Subjects with Grade 3 (100 mg QD) | Alanine Aminotransferase (increased): Subjects with Grade 4 (100 mg QD) | Albumin (decreased): Subjects with Grade 1 (100 mg QD) | Albumin (decreased): Subjects with Grade 2 (100 mg QD) | Albumin (decreased): Subjects with Grade 3 (100 mg QD) | Albumin (decreased): Subjects with Grade 4 (100 mg QD) | Albumin (decreased): Subjects with postbaseline maximum toxicity grade >0 (100 mg QD) | Alkaline Phosphatase (increased): Subjects with Grade 2 (100 mg QD) | Alkaline Phosphatase (increased): Subjects with Grade 3 (100 mg QD) | Alkaline Phosphatase (increased): Subjects with Grade 4 (100 mg QD) | Aspartate Aminotransferase (increased): Subjects with Grade 3 (100 mg QD) | Aspartate Aminotransferase (increased): Subjects with Grade 4 (100 mg QD) | Calcium corrected (decreased): Subjects with Grade 2 (100 mg QD) | Calcium corrected (decreased): Subjects with Grade 3 (100 mg QD) | Calcium corrected (decreased): Subjects with Grade 4 (100 mg QD) | Calcium corrected (increased): Subjects with Grade 2 (100 mg QD) | Calcium corrected (increased): Subjects with Grade 3 (100 mg QD) | Calcium corrected (increased): Subjects with Grade 4 (100 mg QD) | Cholesterol (increased): Subjects with Grade 1 (100 mg QD) | Cholesterol (increased): Subjects with Grade 3 (100 mg QD) | Cholesterol (increased): Subjects with Grade 4 (100 mg QD) | Creatine Kinase (increased): Subjects with Grade 2 (100 mg QD) | Creatine Kinase (increased): Subjects with Grade 3 (100 mg QD) | Creatinine (increased): Subjects with Grade 2 (100 mg QD) | Creatinine (increased): Subjects with Grade 3 (100 mg QD) | Creatinine (increased): Subjects with Grade 4 (100 mg QD) | Gamma Glutamyl Transferase (increased): Subjects with Grade 2 (100 mg QD) | Gamma Glutamyl Transferase (increased): Subjects with Grade 3 (100 mg QD) | Gamma Glutamyl Transferase (increased): Subjects with Grade 4 (100 mg QD) | Glucose (decreased): Subjects with Grade 3 (100 mg QD) | Glucose (decreased): Subjects with Grade 4 (100 mg QD) | Hemoglobin (g/L) (decreased): subjects with Grade 2 (100 mg QD) | Hemoglobin (g/L) (decreased): subjects with Grade 3 (100 mg QD) | Hemoglobin (g/L) (decreased): subjects with Grade 4 (100 mg QD) | Hemoglobin (g/L) (increased): subjects with Grade 1 (100 mg QD) | Hemoglobin (g/L) (increased): subjects with Grade 2 (100 mg QD) | Hemoglobin (g/L) (increased): subjects with Grade 3 (100 mg QD) | Hemoglobin (g/L) (increased): subjects with Grade 4 (100 mg QD) | Hemoglobin (g/L) (increased): subjects with postbaseline maximum toxicity grade >0 (100 mg QD) | Lymphocytes (×10^9/L) (decreased): subjects with Grade 3 (100 mg QD) | Lymphocytes (×10^9/L) (decreased): subjects with Grade 4 (100 mg QD) | Lymphocytes (×10^9/L) (increased): subjects with Grade 1 (100 mg QD) | Lymphocytes (×10^9/L) (increased): subjects with Grade 3 (100 mg QD) | Lymphocytes (×10^9/L) (increased): subjects with Grade 4 (100 mg QD) | Magnesium (decreased): Subjects with Grade 2 (100 mg QD) | Magnesium (decreased): Subjects with Grade 3 (100 mg QD) | Magnesium (decreased): Subjects with Grade 4 (100 mg QD) | Magnesium (increased): Subjects with Grade 2 (100 mg QD) | Magnesium (increased): Subjects with Grade 3 (100 mg QD) | Magnesium (increased): Subjects with Grade 4 (100 mg QD) | Neutrophils (×10^9/L) (decreased): subjects with Grade 3 (100 mg QD) | Neutrophils (×10^9/L) (decreased): subjects with Grade 4 (100 mg QD) | Platelets (×10^9/L) (decreased): subjects with Grade 2 (100 mg QD) | Platelets (×10^9/L) (decreased): subjects with Grade 3 (100 mg QD) | Platelets (×10^9/L) (decreased): subjects with Grade 4 (100 mg QD) | Potassium (decreased): Subjects with Grade 1 (100 mg QD) | Potassium (decreased): Subjects with Grade 3 (100 mg QD) | Potassium (decreased): Subjects with Grade 4 (100 mg QD) | Potassium (increased): Subjects with Grade 1 (100 mg QD) | Potassium (increased): Subjects with Grade 3 (100 mg QD) | Potassium (increased): Subjects with Grade 4 (100 mg QD) | Sodium (decreased): Subjects with Grade 1 (100 mg QD) | Sodium (decreased): Subjects with Grade 2 (100 mg QD) | Sodium (decreased): Subjects with Grade 3 (100 mg QD) | Sodium (decreased): Subjects with Grade 4 (100 mg QD) | Sodium (decreased): Subjects with postbaseline maximum toxicity grade >0 (100 mg QD) | Sodium (increased): Subjects with Grade 2 (100 mg QD) | Sodium (increased): Subjects with Grade 3 (100 mg QD) | Sodium (increased): Subjects with Grade 4 (100 mg QD) | Total Bilirubin (increased): Subjects with Grade 2 (100 mg QD) | Total Bilirubin (increased): Subjects with Grade 3 (100 mg QD) | Total Bilirubin (increased): Subjects with Grade 4 (100 mg QD) | Triglycerides (increased): Subjects with Grade 3 (100 mg QD) | Triglycerides (increased): Subjects with Grade 4 (100 mg QD) | WBC (×10^9/L) (decreased): subjects with Grade 3 (100 mg QD) | WBC (×10^9/L) (decreased): subjects with Grade 4 (100 mg QD) | WBC (×10^9/L) (increased): subjects with Grade 1 (100 mg QD)
7: Total Bilirubin (increased): Subjects with Grade 1 (100 mg QD) | Total Bilirubin (increased): Subjects with postbaseline maximum toxicity grade >0 (100 mg QD)
5: Potassium (increased): Subjects with Grade 1 (100 mg BID) | Potassium (increased): Subjects with postbaseline maximum toxicity grade >0 (100 mg BID) | Gamma Glutamyl Transferase (increased): Subjects with Grade 1 (100 mg QD) | Gamma Glutamyl Transferase (increased): Subjects with postbaseline maximum toxicity grade >0 (100 mg QD) | Triglycerides (increased): Subjects with postbaseline maximum toxicity grade >0 (100 mg QD) | WBC (×10^9/L) (decreased): subjects with postbaseline maximum toxicity grade >0 (100 mg QD)
9: Aspartate Aminotransferase (increased): Subjects with Grade 1 (100 mg QD)
10: Aspartate Aminotransferase (increased): Subjects with postbaseline maximum toxicity grade >0 (100 mg QD)
